Data as given in article PMC7436000, “The Spectrum of Design Solutions for Improving the Activity-Selectivity Product of Peptide Antibiotics against Multidrug-Resistant Bacteria and Prostate Cancer PC-3 Cells” (Molecules, 2020).
Values after ≈ are worked out from the molar mass of the structure shown. Peptide text beside a SMILES is read from it.

Assays:
S. aureus clin. isolate = assay type: cell-based, Staphylococcus aureus; settings: clin. isolate
Excerpt: (§1) The American Type Culture Collection (ATCC, Rockville, MD, USA) strains and Escherichia coli MG1655 were used as standard bacterial strains. Gram-negative ATCC strains consisted of Escherichia coli (ATCC 25922), Pseudomonas aeruginosa (ATCC 27853), Acinetobacter baumannii (ATCC 19606), and Klebsiella pneumoniae (ATCC 13883). The only Gram-positive standard strain chosen for testing was Staphylococcus aureus (ATCC 29213). Clinical isolates with confirmed multidrug-resistance phenotype were obtained from different wards of the University Hospital Center, Split, Croatia. We described their origin, antibiograms, and resistance phenotype previously. In the same paper, we described the procedure for antimicrobial susceptibility testing on planktonic cells, using the microdilution method in 96-well microtiter plates.
(§2) Briefly, cells were grown on agar plates and a single colony was sampled to generate a liquid culture (LC) grown overnight at 37 °C. The culture was sampled, resuspended in fresh medium, and allowed to grow at 37 °C, until reaching the mid-exponential phase. Lysogeny broth (LB) was used in the case of the E. coli MG1655 cells. Mueller Hinton (MH) medium was used for all other bacterial strains. Serial 2-fold dilutions of the peptide (64 μM to 0.0625 μM) were prepared from peptide stock solution in PBS, and added to a final load of 5 × 10^5 CFU/mL in 100 μL total volume of medium per well in a 96-well plate (Brand 781660). Bacterial cultures were incubated with peptides for 18 h to 24 h at 37 °C. The minimum inhibitory concentration (MIC) was defined as the lowest concentration of the peptide, at which no visible bacterial growth was observed. The MIC for each of the tested peptides was determined in at least three individual assays under the same laboratory conditions. […] At the end of the incubation period for MIC or MBC, the determination of the OD600 was analyzed.

P. aerug. clin. isolate = assay type: cell-based, Pseudomonas aeruginosa
Excerpt: as §1, §2

[1] = test system: human primary dermal fibroblasts; assay type: cell-based; settings: 24 h
Protocol: (§3) Prostate cancer cells were donated by the University of Split, School of Medicine. Cells were cultured in RMPI-1640 medium, supplemented with 10% FBS, 1% Penicillin-Streptomycin, and 1% L-Glutamine. Human dermal fibroblasts were purchased from Biopredic (France) and cultured in DMEM medium, supplemented with 10% FBS and 1% Penicillin-Streptomycin. All cell lines were maintained in a humidified incubator with 5% CO2 at 37 °C. Cells were detached using the trypsin-EDTA solution and sub-cultured (7000 cells/well) in a 96-well plate overnight. Peptide stock solutions were prepared in PBS, and cancer cells were treated with 2-fold serial dilutions for 24 h at 37 °C, with 5% CO2. The toxicity of 6 selected peptides was assessed by a standard MTT assay. Treated cells were incubated with MTT working solution (0.5 mg/mL Thiazolyl Blue Tetrazolium Bromide) for 4 h at 37 °C with 5% CO2. Precipitated formazan was dissolved in 200 µL DMSO and absorbance was measured at 595 nm with EnSight Multimode Plate Reader (PerkinElmer, Inc.)

human erythrocytes [2] = experiment: Hemolysis of human erythrocytes; assay type: cell-based; settings: 24 h
human erythrocytes [3] = experiment: Hemolysis of human erythrocytes; assay type: cell-based; settings: 1 h
Protocol: Fresh blood was obtained from a healthy donor. Blood was stored in a tube containing EDTA at 4 °C and used within 24 h. Before use, 1 mL of blood was centrifuged (400× g, 10 min), and the supernatant was discarded. Moreover, 500 μL cold PBS with EDTA (1 mM) was added, mixed and centrifuged. The supernatant was discarded. Furthermore, 500 μL of cold PBS with EDTA (1 mM) was added, from which a dilution of 1% blood was made. Peptides were prepared in PBS at a 2 × concentration in 100 µL. […] The suspension was incubated at 37 °C for 1 h and centrifuged at 10,000× g for 5 min. […] After centrifugation, the supernatant was added to a 96-well microtiter plate (150–180 μL), and the absorbance was measured at 450 nm, using EnSight Multimode Plate Reader (PerkinElmer, Inc.). Each measurement was done in triplicate. […] We opted to also include the extrapolated HC50 in our results, to permit comparisons with older toxicity results. However, the HC20 measurements were used for ranking the peptides according to their selectivity and overall performance (Figure 1 and Figure 2 and Table 2).

Escherichia coli MG1655 = assay type: cell-based; settings: MG1655
Excerpt: as §1, §2

[4] = test system: Acinetobacter baumannii (ATCC 19606); assay type: cell-based; settings: ATCC 19606
Excerpt: as §1, §2

[5] = test system: Staphylococcus aureus (ATCC 29213); assay type: cell-based
Excerpt: as §1, §2

[6] = test system: Escherichia coli (ATCC 25922); assay type: cell-based; settings: ATCC 25922
Excerpt: as §1, §2

[7] = test system: Pseudomonas aeruginosa (ATCC 27853); assay type: cell-based; settings: ATCC 27853
Excerpt: as §1, §2

[8] = test system: Klebsiella pneumoniae (ATCC 13883); assay type: cell-based; settings: ATCC 13883
Excerpt: as §1, §2

A. baum. clin. isolate = assay type: cell-based, Acinetobacter baumannii
Excerpt: as §1, §2

[9] = test system: PC-3 prostate cancer cell line; assay type: cell-based, human; settings: 24 h
Protocol: as §3

E. coli clin. isolate = assay type: cell-based, Escherichia coli; settings: clin. isolate
Excerpt: as §1, §2

K. pneum. clin. isolate = assay type: cell-based, Klebsiella pneumoniae
Excerpt: as §1, §2

standard ATCC E. coli = settings: cited from earlier work
[10] = cited from earlier work
standard ATCC S. aureus = settings: cited from earlier work
lymphoma cell line U937 = test system: lymphoma cell line U937; parameters: method as in PMID 21403917; settings: read-out: IC50 against lymphoma cell line U937; cited from earlier work
[11] = test system: human neonate chondrocytes; settings: cited from earlier work
Excerpt: (§4) In the ZYK1 example, the parent peptide already has selective antimicrobial and antitumor activity. […] It follows that the TI for the paren ...

[12] = test system: Gram-negative and Gram-positive bacteria; settings: cited from earlier work
Excerpt: as §4

[13] = test system: HeLa (human cervical carcinoma cells) and HL60 (human promyelocytic leukemia cells); settings: two selected cancer cell lines; read-out: IC50 against HeLa and HL60; cited from earlier work
Excerpt: as §4

[14] = cited from earlier work; remark: listed apart in the source
Excerpt: The MAPA analog of the MAP cell-penetrating peptide is five times less hemolytic and has at least two times stronger antibacterial activity than MAP [73] (Table 2). Accordingly, by introduced substitutions, we increased the selectivity index by at least one order of magnitude, and converted a strongly hemolytic, predominantly cell-penetrating peptide with no antibacterial selectivity (SI = 1, [73]), into a potent peptide antibiotic. MAP is an important molecule for engineering new anticancer agents, but as far as we can tell, MAPA is the first known selective anticancer MAP an ...

human erythrocytes [15] = settings: cited from earlier work
Excerpt: The cell-penetrating ability is inherent to some amphipathic peptides with a high percentage of cationic residues. More than five arginines are required to direct membrane penetration through the eukaryotic membrane. This condition is fulfilled by guananin 2, the PenArg analog of penetratin, and T2R1, but not by T2. Penetratin, with the sequence […], is a well-known cell-penetrating peptide, which is furthermore an antimicrobial and anticancer peptide. That peptide is, to some degree, toxic to HeLa and Jurkat cancer cell lines. The toxicity to HeLa ...

Compound	MIC (S. aureus clin. isolate) (S. aureus clin. isolate) [µM]	MIC (P. aerug. clin. isolate) (P. aerug. clin. isolate) [µM]	IC50 [1] [µM]	MIC (E. coli MG1655) (Escherichia coli MG1655) [µM]	MIC (A. baum. ATCC 19606) [4] [µM]	MIC (S. aureus ATCC 29213) [5] [µM]	MIC (E. coli ATCC 25922) [6] [µM]	MIC (P. aerug. ATCC 27853) [7] [µM]	MIC (K. pneum. ATCC 13883) [8] [µM]	MIC (A. baum. clin. isolate) (A. baum. clin. isolate) [µM]	(TI/ IC50C) vs. MP1 [9]	IC50 [9] [nM]	TI (HC20/IC20C) [9]	TI (IC50F/IC50C) [9]	TI/ IC50C [9]	MIC (E. coli clin. isolate) (E. coli clin. isolate) [µM]	MIC (K. pneum. clin. isolate) (K. pneum. clin. isolate) [µM]	also measured
CC[C@H](C)[C@H](NC(=O)CN)C(=O)NCC(=O)N[C@@H](CCCCN)C(=O)N[C@@H](Cc1ccccc1)C(=O)N[C@@H](CC(C)C)C(=O)N[C@@H](CCCCN)C(=O)N[C@@H](CCCCN)C(=O)N[C@@H](C)C(=O)N[C@@H](CCCCN)C(=O)N[C@@H](CCCCN)C(=O)N[C@@H](Cc1ccccc1)C(=O)NCC(=O)N[C@@H](CCCCN)C(=O)N[C@@H](C)C(=O)N[C@@H](Cc1ccccc1)C(=O)N[C@H](C(=O)N[C@@H](CC(C)C)C(=O)N[C@H](C(=O)N[C@@H](CC(C)C)C(=O)N[C@@H](CCCCN)C(=O)N[C@@H](CCCCN)C(N)=O)[C@@H](C)CC)C(C)C [PEXA] (H-GIGKFLKKAKKFGKAFVLILKK-NH2)	2 (≈ 4.92 µg/mL)	16 (≈ 39.4 µg/mL)	12	4 (≈ 9.85 µg/mL)	1 to 2	0.5 (≈ 1.23 µg/mL)	0.5 to 1	4 (≈ 9.85 µg/mL)	2 (≈ 4.92 µg/mL)	1 to 2	18	4000	6.7	3	0.75	4 (≈ 9.85 µg/mL)	4 (≈ 9.85 µg/mL)	HC50 * (extrapolated) (human erythrocytes [2]): 520 * µM; HC10 (human erythrocytes [3]): 1.6 µM; HC20 (human erythrocytes [3]): 7 µM
CC[C@H](C)[C@H](NC(=O)[C@@H](NC(=O)[C@H](CCCNC(=N)N)NC(=O)CNC(=O)[C@@H](NC(=O)[C@H](CCCCN)NC(=O)[C@H](CCCCN)NC(=O)CNC(=O)[C@@H](NC(=O)[C@H](CCCCN)NC(=O)[C@H](CCCCN)NC(=O)[C@@H](NC(=O)[C@@H](NC(=O)[C@H](CCCCN)NC(=O)[C@H](CCCCN)NC(=O)[C@@H](NC(=O)[C@@H](NC(=O)[C@H](CCC(=O)O)NC(=O)[C@H](CCCNC(=N)N)NC(=O)CNC(=O)[C@@H](NC(=O)CN)[C@@H](C)CC)[C@@H](C)CC)[C@@H](C)CC)[C@@H](C)CC)[C@@H](C)CC)[C@@H](C)CC)[C@@H](C)CC)[C@@H](C)CC)C(N)=O [ZYK1] (H-GIGREIIKKIIKKIGKKIGRII-NH2)	2 (≈ 4.95 µg/mL)	16 (≈ 39.6 µg/mL)	10	4 (≈ 9.9 µg/mL)	2 (≈ 4.95 µg/mL)	1 (≈ 2.47 µg/mL)	1 (≈ 2.47 µg/mL)	16 (≈ 39.6 µg/mL)	2 (≈ 4.95 µg/mL)	2 (≈ 4.95 µg/mL)	107	1500	8.6	6.7	4.47	2 (≈ 4.95 µg/mL)	4 (≈ 9.9 µg/mL)	HC10 (human erythrocytes [3]; concentration causing 10% hemolysis, 0.5% RBC in PBS, 37 °C, absorbance 450 nm, 0.2% Triton = 100%, triplicate): 3 µM; HC20 (human erythrocytes [3]; concentration causing 20% hemolysis, 0.5% RBC in PBS, 37 °C, absorbance 450 nm, triplicate): 8 µM; HC50 (human erythrocytes [3]; concentration causing 50% hemolysis, 0.5% RBC in PBS, 37 °C, absorbance 450 nm, triplicate): 29 µM; PEa(20) = SI/MIC(aureus) ([5]; ATCC 29213, 18 h): 8 µM⁻¹
GIGKFLKKAKKFGKAFVKILKK [pexiganan, well-known broad-spectrum peptide antibiotic]																		MIC, standard ATCC E. coli (standard ATCC E. coli): 6.5 µM; HC50 hemolytic activity [10]: 45 µM; MIC, standard ATCC S. aureus (standard ATCC S. aureus): 6.5 µM; IC50 (lymphoma cell line U937): 4 µM
GIIKKIIKKIIKKI-NH2 [already known artificial AMP template of ZYK1]																		IC50 [11]: > 40 µM; MIC values [12]: about 10 μM; IC50 [13]: 15 to 25 µM
KLALKLALKALKAALKLA [MAP, cell-penetrating peptide, template of mapegin]																		antibacterial selectivity SI [14]: 1
RQYMRQIEQALRYGYRISRR [guananin 2, arginine-rich designed peptide from the literature]																		selectivity index (human erythrocytes [15]): about 24
